Measurements from ChEMBL document CHEMBL1201862, “PubChem BioAssay data set” (2004).
Calls of active or inactive are those of the source.

Legend:
Paired box protein Pax-8 = Paired box protein Pax-8 (Homo sapiens, UniProt Q06710); assay: inhibitors of PAX8-driven TPO luciferase reporter, dose response, RMG-I cells, cherry-pick (AID 687027); type: functional, cell-based;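 note: luciferase reporter driven by Pax8 target thyroperoxidase promoter measured by SteadyGlo luminescence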
Fatty acid synthase [1] = target: T1, Fatty acid synthase (Homo sapiens, UniProt P49327); assay: FAS thioesterase domain inhibitors, dose response, biochemical, endpoint fluorescence intensity, uHTS hits (AID 624327); type: functional;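 note: fluorescence from hydrolysis of an O-methyl fluorescein acyl ester substrate by the enzyme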
Fatty acid synthase [2] = target: T1, Fatty acid synthase; assay: FAS thioesterase domain inhibitors, dose response, biochemical, kinetic fluorescence intensity (AID 624326); type: functional;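 note: rate of fluorescence rise from hydrolysis of a fluorogenic O-methyl fluorescein ester substrate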
[3] = target: T2, Polyadenylate-binding protein 1 (Homo sapiens, UniProt P11940); assay: PABP1 MLLE–PAM2 interaction inhibitors, dose response, miRNA deadenylation inhibitor project, biochemical, fluorescence polarization, Cy5-PAM2 peptide, secondary (AID 602260); type: functional; conditions: read-out: IC50_Mean
[4] = target: T2, Polyadenylate-binding protein 1; assay: PABP1 MLLE–PAM2 binding inhibitor potency, dose response, biochemical, fluorescence polarization, FITC-PAM2 peptide (AID 602259); type: functional; conditions: read-out: IC50_Mean
[5] = target: T3, Calpain-2 catalytic subunit (Sus scrofa, UniProt P43367); assay: pig calpain II inhibitor potency, dose response, biochemical, fluorogenic peptide substrate (AID 1420); type: functional
T3 sequence (P43367 whole entry): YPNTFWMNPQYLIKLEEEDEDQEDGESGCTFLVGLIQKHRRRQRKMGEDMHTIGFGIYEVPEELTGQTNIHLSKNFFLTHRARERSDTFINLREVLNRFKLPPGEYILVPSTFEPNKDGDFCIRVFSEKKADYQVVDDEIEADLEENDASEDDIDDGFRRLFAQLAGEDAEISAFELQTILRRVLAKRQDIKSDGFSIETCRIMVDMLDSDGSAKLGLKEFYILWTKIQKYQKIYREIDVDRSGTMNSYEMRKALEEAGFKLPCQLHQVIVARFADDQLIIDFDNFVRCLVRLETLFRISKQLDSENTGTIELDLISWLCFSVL

Protein skinhead-1 = target: T4, Protein skinhead-1 (Caenorhabditis elegans, UniProt P34707); type: functional
T4 sequence (P34707 whole entry): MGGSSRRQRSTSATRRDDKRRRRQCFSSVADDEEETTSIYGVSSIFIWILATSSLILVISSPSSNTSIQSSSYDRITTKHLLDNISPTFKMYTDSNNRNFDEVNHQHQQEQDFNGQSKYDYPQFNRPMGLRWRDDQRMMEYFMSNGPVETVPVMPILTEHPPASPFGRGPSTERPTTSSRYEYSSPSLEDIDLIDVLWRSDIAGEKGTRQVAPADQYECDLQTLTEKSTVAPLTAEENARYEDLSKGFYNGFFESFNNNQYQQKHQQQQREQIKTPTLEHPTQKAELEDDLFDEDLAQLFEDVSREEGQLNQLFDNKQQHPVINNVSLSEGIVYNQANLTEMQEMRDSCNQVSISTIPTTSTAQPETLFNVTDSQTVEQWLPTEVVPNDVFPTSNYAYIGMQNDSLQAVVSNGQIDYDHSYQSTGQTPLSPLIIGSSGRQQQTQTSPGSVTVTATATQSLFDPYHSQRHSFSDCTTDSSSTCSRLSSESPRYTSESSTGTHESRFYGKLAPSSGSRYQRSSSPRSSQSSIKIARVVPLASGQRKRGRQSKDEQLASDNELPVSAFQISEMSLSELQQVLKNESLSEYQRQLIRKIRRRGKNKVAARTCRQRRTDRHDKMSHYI

[6] = target: T5, Corticotropin-releasing factor receptor 2/Corticotropin-releasing factor-binding protein (Homo sapiens, UniProt P24387+Q13324); assay: Dose Response confirmation of uHTS hits for small molecule antagonists of the CRF-binding protein and CRF-R2 receptor complex.; type: functional; conditions: read-out: IC50_Mean
T5 sequence (Q13324 whole entry): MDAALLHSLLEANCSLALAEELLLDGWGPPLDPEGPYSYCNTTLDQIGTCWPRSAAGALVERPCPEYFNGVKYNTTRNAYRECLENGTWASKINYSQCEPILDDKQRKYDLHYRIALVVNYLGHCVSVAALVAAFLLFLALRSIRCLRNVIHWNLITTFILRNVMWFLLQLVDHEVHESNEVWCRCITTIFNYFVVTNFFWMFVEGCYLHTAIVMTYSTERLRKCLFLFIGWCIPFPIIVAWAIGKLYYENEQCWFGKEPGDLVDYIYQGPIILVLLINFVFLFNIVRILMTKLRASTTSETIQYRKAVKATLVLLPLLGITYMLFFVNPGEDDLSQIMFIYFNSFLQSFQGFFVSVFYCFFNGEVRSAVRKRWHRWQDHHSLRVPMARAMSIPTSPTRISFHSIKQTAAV
T5 sequence (P24387 whole entry): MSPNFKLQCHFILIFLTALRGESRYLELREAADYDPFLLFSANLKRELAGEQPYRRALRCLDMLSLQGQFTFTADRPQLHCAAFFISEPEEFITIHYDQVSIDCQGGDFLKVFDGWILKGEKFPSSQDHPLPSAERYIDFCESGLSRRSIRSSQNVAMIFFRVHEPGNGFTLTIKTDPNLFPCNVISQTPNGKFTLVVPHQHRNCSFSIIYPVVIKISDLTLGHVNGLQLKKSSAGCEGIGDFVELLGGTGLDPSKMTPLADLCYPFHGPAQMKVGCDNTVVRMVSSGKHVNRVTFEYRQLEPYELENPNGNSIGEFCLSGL

[7] = target: T5, Corticotropin-releasing factor receptor 2/Corticotropin-releasing factor-binding protein; assay: activators of CRF receptor 2 with binding protein – uHTS hits, confirmation (AID 602473); type: functional; conditions: read-out: EC50_Mean
[8] = system: Streptococcus sp. 'group A'; assay: growth inhibition of control SK(-) GAS strain, dose response, counter-screen for streptokinase expression inhibitor project, luminescence, kanamycin, BacTiterGlo, confirmation (AID 1900); type: functional, organism-based
Streptokinase A = target: T6, Streptokinase A (Streptococcus pyogenes serotype M1, UniProt P10520); assay: S. pyogenes streptokinase expression inhibitors, potency, dose response, plasminogen activation absorbance, OD405 (AID 1914); type: functional, Streptococcus pyogenes M1 GAS;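 note: secreted streptokinase activity via plasminogen activation per viability signal from cell pellet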
T6 sequence (P10520 whole entry): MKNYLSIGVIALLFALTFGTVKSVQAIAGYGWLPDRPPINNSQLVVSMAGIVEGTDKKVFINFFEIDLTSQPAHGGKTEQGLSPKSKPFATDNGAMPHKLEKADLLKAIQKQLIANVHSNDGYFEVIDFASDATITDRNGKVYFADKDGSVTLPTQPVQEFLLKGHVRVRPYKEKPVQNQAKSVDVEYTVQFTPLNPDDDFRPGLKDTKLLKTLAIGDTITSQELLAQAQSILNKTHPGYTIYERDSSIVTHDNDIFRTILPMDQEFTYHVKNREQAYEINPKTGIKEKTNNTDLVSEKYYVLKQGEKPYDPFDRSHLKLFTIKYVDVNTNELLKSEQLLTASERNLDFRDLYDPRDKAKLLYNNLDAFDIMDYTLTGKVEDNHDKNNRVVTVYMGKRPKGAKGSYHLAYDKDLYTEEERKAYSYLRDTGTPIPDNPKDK

Streptococcus = assay: Group A Streptococcus viability loss, dose response, counter-screen for streptokinase expression inhibitor project, luminescence, BacTiterGlo (AID 1915); type: functional, organism-based;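 note: potency for reduction of bacterial viability or growth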
[9] = target: T7, Heat shock factor protein 1 (Mus musculus, UniProt P38532); assay: HSF1 potentiators in luciferase reporter cells, confirmation, cell-based, NIH3T3, luminescence, dose retest (AID 435004); type: functional;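 note: stress induced by proteasome inhibitor MG132 added 30 min after compound; luciferase reporter driven by HSF1 response element in NIH3T3 cells; actives raise luminescence as potentiators of the MG132 stress response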
T7 sequence (P38532 whole entry): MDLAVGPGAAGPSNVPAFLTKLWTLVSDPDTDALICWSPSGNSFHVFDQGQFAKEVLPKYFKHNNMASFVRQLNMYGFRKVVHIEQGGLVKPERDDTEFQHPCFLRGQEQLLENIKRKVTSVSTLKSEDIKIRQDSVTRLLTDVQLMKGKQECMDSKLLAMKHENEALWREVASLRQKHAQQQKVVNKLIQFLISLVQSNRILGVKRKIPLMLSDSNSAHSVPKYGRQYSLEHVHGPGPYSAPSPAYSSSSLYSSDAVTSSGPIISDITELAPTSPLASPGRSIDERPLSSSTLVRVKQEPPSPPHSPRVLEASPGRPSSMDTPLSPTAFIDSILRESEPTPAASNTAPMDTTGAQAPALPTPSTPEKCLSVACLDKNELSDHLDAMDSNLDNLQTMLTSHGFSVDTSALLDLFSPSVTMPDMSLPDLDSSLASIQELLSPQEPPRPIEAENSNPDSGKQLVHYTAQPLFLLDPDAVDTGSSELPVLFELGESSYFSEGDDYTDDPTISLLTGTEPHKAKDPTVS

Chain of Paired box protein Pax-8 (Q06710 whole entry, the tested form may be a part): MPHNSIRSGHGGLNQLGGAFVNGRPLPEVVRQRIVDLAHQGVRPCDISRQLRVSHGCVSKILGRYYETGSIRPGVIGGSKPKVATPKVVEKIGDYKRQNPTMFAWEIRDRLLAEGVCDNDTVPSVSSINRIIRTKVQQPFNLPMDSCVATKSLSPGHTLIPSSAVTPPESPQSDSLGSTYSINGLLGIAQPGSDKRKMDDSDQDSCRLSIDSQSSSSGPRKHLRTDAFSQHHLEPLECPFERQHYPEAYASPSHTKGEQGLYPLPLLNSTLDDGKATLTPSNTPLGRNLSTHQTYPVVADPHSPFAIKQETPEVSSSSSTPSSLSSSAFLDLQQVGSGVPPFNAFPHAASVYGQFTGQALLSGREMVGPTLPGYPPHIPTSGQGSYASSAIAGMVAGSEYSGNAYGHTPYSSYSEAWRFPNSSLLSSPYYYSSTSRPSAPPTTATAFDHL
T1 sequence (P49327 whole entry, the tested form may be a part): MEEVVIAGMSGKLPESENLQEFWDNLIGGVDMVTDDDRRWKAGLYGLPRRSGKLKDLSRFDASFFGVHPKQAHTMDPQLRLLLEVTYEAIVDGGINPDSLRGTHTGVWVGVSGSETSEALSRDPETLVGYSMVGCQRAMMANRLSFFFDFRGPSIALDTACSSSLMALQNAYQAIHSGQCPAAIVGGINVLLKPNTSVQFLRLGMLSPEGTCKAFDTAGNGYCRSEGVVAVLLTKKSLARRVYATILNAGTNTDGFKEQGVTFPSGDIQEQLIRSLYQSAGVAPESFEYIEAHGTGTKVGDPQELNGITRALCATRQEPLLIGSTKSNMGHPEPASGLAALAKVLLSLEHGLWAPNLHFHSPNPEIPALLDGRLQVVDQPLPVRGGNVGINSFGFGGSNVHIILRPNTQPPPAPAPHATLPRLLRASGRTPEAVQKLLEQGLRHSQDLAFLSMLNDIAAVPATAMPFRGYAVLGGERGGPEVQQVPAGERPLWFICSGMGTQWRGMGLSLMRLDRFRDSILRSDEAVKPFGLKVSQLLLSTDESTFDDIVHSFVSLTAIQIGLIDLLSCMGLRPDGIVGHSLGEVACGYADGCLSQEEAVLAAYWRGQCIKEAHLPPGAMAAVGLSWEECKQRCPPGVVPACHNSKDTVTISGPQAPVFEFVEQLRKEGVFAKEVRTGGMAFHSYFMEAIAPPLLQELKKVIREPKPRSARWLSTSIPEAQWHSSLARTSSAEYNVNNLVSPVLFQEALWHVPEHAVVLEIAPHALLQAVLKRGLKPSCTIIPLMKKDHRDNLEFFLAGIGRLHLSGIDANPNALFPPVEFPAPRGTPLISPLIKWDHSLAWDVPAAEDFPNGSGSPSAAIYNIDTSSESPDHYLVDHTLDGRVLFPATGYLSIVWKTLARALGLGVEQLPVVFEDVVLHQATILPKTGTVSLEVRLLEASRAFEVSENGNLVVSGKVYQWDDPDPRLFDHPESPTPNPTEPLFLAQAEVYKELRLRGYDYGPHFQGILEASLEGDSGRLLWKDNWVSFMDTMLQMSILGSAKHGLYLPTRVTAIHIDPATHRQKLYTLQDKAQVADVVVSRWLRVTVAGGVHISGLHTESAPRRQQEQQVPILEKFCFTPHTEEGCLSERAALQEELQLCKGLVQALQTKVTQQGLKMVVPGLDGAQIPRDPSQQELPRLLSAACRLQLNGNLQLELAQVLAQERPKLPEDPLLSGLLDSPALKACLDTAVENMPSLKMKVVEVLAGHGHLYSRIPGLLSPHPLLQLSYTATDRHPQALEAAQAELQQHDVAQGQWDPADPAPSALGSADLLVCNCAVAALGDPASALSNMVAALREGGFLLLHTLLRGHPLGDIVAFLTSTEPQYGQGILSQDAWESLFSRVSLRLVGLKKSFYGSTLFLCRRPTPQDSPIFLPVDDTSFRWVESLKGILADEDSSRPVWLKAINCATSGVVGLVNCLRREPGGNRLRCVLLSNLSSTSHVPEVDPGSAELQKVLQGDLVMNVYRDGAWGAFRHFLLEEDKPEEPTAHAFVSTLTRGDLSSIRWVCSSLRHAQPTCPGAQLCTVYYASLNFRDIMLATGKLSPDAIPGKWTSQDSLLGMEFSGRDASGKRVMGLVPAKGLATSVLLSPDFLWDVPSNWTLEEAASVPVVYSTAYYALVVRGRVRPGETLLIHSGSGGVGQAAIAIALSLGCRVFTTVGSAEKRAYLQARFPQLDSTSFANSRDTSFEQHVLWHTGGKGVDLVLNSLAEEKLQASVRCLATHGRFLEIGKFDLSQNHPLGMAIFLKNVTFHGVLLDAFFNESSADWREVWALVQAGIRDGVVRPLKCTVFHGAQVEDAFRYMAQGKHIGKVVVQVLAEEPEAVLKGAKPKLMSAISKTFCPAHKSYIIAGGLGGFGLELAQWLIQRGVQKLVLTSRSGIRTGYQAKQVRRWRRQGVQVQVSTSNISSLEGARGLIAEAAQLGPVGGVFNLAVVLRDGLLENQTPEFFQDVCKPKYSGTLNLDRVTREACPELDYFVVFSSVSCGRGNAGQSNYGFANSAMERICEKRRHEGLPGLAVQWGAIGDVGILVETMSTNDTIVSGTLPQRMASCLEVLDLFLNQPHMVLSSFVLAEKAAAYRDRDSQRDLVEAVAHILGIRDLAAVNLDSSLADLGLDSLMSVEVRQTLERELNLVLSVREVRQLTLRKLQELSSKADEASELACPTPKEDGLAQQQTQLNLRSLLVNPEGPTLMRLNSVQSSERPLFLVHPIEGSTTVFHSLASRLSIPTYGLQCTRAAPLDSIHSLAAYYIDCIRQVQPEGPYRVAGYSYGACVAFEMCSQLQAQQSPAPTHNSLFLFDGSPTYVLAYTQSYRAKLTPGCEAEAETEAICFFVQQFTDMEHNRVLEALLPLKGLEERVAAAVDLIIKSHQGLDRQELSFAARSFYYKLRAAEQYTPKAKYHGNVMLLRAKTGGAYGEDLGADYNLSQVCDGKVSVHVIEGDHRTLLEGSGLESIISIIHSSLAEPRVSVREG
T2 sequence (P11940 whole entry): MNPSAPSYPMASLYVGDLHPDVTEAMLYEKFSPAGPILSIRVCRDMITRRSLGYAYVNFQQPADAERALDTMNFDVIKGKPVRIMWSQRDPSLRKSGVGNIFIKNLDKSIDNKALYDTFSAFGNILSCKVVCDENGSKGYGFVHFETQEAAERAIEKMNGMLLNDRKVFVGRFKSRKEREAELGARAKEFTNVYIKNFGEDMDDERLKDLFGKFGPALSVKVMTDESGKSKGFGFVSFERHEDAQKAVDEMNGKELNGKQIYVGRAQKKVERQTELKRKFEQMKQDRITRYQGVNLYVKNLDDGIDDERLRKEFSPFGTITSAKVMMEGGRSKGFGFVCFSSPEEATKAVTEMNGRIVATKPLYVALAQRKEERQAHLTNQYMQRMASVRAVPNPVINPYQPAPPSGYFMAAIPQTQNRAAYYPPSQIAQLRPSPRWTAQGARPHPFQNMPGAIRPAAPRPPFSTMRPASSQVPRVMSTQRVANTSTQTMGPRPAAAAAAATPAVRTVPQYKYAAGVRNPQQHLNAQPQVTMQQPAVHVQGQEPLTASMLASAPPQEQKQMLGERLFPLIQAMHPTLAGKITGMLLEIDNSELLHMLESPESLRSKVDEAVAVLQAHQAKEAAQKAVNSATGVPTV

C[C@H]1CCCCO[C@@H](CN(C)S(=O)(=O)c2cccs2)[C@@H](C)CN([C@@H](C)CO)C(=O)c2cc(NC(=O)NC3CCCCC3)ccc2O1
AC50 (Paired box protein Pax-8): 4.79 µM (active)

COc1ccc([C@H]2CC(=O)C=C(c3ccc(C)c([N+](=O)[O-])c3)C2)cc1
IC50 (Fatty acid synthase [1]): 2.65 µM (active)
IC50 (Fatty acid synthase [2]): 2.14 µM (active)

O=C(NC1CCCCC1)C1CC(=O)N(c2cccc([N+](=O)[O-])c2)C1 (stereo unspecified)
IC50 (Fatty acid synthase [1]): 3.47 µM (active)
IC50 (Fatty acid synthase [2]): 1.89 µM (active)

COc1ccc(C2C=C(c3ccc(C)cc3)Nc3ncnn32)cc1 (stereo unspecified)
IC50 [3]: > 66 µM (inactive)
IC50 [4]: > 66 µM (inactive)

O=C(COc1ccc(Cl)cc1Cl)Nn1c(=S)[nH]c2ncccc2c1=O
IC50 [3]: > 66 µM (inactive)
IC50 [4]: > 66 µM (inactive)

CN1/C(=C\C(=O)CSc2nnc(NCc3ccccc3)s2)C(C)(C)c2ccccc21
IC50 [5]: 4.01 µM (not active)
IC50 (Protein skinhead-1): > 100 µM (inactive)

N#Cc1cccc(-c2ccc3c(c2)[C@@H]2[C@@H](CCN2S(=O)(=O)c2ccc(F)cc2)[C@@H](CO)N3)c1
AC50 (Paired box protein Pax-8): 6.61 µM (active)

Cc1cccc(OCc2nc(C#N)c(NCc3ccc4c(c3)OCO4)o2)c1
IC50 [5]: 6.8 µM (not active)

c1ccc(Cc2nnc3sc(-c4ccncc4)nn23)cc1
IC50 [3]: > 66 µM (inactive)
IC50 [4]: > 66 µM (inactive)

C[C@H](CO)N1C[C@H](C)[C@H](CN(C)Cc2ccc(Cl)c(Cl)c2)OCCCC[C@H](C)Oc2ccc(NC(=O)Nc3ccccc3)cc2C1=O
AC50 (Paired box protein Pax-8): 11.9 µM (active)

O=C(COC(=O)c1cc([N+](=O)[O-])ccc1N1CCCC1)Nc1ccccc1OC(F)F
IC50 (Fatty acid synthase [1]): 8.72 µM (active)
IC50 (Fatty acid synthase [2]): 9.1 µM (active)

CC(=O)c1cccc(OC(=O)Oc2cccc(C(C)=O)c2)c1
IC50 (Fatty acid synthase [1]): 10.5 µM (active)
IC50 (Fatty acid synthase [2]): 6.11 µM (active)

CCn1c2ccccc2c2nnc(SCc3ccc(C(=O)OC)o3)nc21
IC50 [3]: > 66 µM (inactive)
IC50 [4]: > 66 µM (inactive)

COC(=O)C1CCN(C(=O)COC(=O)c2cc([N+](=O)[O-])ccc2N2CCOCC2)CC1
IC50 [6]: > 47.1 µM (inactive)
EC50 [7]: > 53 µM (inactive)
IC50 (Fatty acid synthase [1]): 5.73 µM (active)
IC50 (Fatty acid synthase [2]): 3.96 µM (active)

CC(C)(C)c1ccc(OCCSc2nc3ccccc3n2CC(=O)O)cc1
IC50 (Fatty acid synthase [1]): 2.39 µM (active)
IC50 (Fatty acid synthase [2]): 2.14 µM (active)

Cc1cc2ncn(-c3ncnc4sc5c(c34)CCC(C)C5)c2cc1C (stereo unspecified)
IC50 [5]: 19.2 µM (not active)

CCOC(=O)N1CCN(Cc2c(O)ccc3ccccc23)CC1
IC50 [3]: > 66 µM (inactive)
IC50 [4]: > 66 µM (inactive)

O=C(NC(=S)Nc1cc([N+](=O)[O-])ccc1O)c1cccnc1
IC50 [3]: > 66 µM (inactive)
IC50 [4]: > 66 µM (inactive)

CCN(CC(=O)Nc1c(F)cccc1F)C(=O)Cc1ccc2c(c1)CCC2
IC50 [3]: > 66 µM (inactive)
IC50 [4]: > 66 µM (inactive)

O=C(COc1ccc(C(=S)N2CCOCC2)cc1Cl)Nc1ccccc1Cl
IC50 [3]: > 66 µM (inactive)
IC50 [4]: > 66 µM (inactive)

COc1ccc(C(=O)OCC(=O)Nc2ccccc2)cc1[N+](=O)[O-]
IC50 (Fatty acid synthase [1]): 7.38 µM (active)
IC50 (Fatty acid synthase [2]): 9.96 µM (active)

C[C@@H]1CCCCO[C@@H](CN(C)C(=O)C2CCCCC2)[C@H](C)CN([C@H](C)CO)C(=O)c2cc(NC(=O)Nc3ccc(F)cc3)ccc2O1
AC50 (Paired box protein Pax-8): 8.22 µM (active)

CCOC(=O)c1cnc(-n2nc(C)cc2C)nc1Nc1ccc(OC)cc1
EC50 [8]: 6.33 µM (active)
EC50 (Streptokinase A): > 150 µM (not active)
IC50 [5]: < 0.4 µM (not active)
EC50 (Streptococcus): > 150 µM (not active)

COc1ccccc1Nc1nc(Cl)c(C=O)s1
IC50 [5]: > 50 µM (not active)

c1ccc(Oc2ccc(-c3ccnc4ncnn34)cc2)cc1
IC50 [5]: 11.5 µM (active)

CN1C[C@H](C(=O)N[C@]2(C)O[C@@]3(O)[C@@H]4CCCN4C(=O)[C@H](Cc4ccccc4)N3C2=O)CC2c3cccc4[nH]cc(c34)C[C@H]21 (stereo partly specified)
IC50 (Fatty acid synthase [1]): 9.27 µM (active)
IC50 (Fatty acid synthase [2]): 15.6 µM (active)

Cc1ccc(S(=O)(=O)N(C)C)cc1NC(S)=NC(C)CCCC(C)C (stereo unspecified)
EC50 [9]: > 260 µM (inactive)
IC50 (Fatty acid synthase [1]): 12.3 µM (active)
IC50 (Fatty acid synthase [2]): 9.82 µM (active)
